Read-outs that look alike come from different tables or passages of the source.
Legend:
Escherichia coli = test: Agar diffusion assay, E. coli; format: cell-based; parameters: E. coli A% (activity index): concentration or dose not given beside the values; conditions: for zone of inhibition at 20 µM: Escherichia coli, read-out: E. coli IZD (mm); for E. coli A% (activity index): zone of test compound / zone of standard (ampicillin) x 100
Staphylococcus aureus = test: Agar diffusion assay, S. aureus; format: cell-based; parameters: S. aureus A% (activity index): concentration or dose not given beside the values; conditions: for zone of inhibition at 20 µM: Staphylococcus aureus, read-out: S. aureus IZD (mm); for S. aureus A% (activity index): zone of test compound / zone of standard (ampicillin) x 100
Method: (§1) The antimicrobial activities of the OSe compounds were evaluated against C. albicans yeast, as well as E. coli and S. bacteria, employing the agar well diffusion assay. Furthermore, the MICs (in µM) were determined by the microdilution method according to the reported protocol. More details are in the Supporting Information.
(§2) Compounds were evaluated for their antimicrobial activity against the Gram-negative bacteria Escherichia coli (E. coli) and the Gram-positive bacteria Staphylococcus aureus (S. aureus), as well as the Candida albicans (C. albicans) fungal strain, using the agar diffusion assay. Ampicillin and clotrimazole were used as standards. Indeed, the antimicrobial properties of the OSe compounds were also obtained from the activity index percentage (A%) according to Equation (2). (2) A%=Zone of inhibition by test compound diametre/Zone of inhibition by standard diametre×100 . […]
(§3) 1.1.1. The antimicrobial activity
The antimicrobial activities of the OSe compounds were evaluated against C. albicans yeast as well as E. coli gram-negative and S. aureus gram-positive bacteria employing the agar well diffusion assay. Briefly, a concentration of 1 mM was prepared for each compound by dissolving in DMSO. Paper discs of standard size […] were steri-lized in an autoclave and soaked in 20 µL of the test compounds, and placed in the Petri dishes, which in turn contain a nutrient media (agar 20 g, peptone 5 g, and beef extract 3 g) seeded with the dedicated strain. Incubation lasted for 24 h at 36
(§4) Furthermore, the MICs (in µM) were determined by the microdilution method according to the reported protocol. […]
(§5) Inhibition%= (Ablank-Asample)/(Ablank)*100. (1)

MCF-7 cells = test: cells; format: cell-based, human; conditions: for IC50: Homo sapiens; for MCF7 TI (IC50 WI-38 / IC50 MCF-7): therapeutic index, ratio of WI-38 IC50 to MCF-7 IC50
Method: (§6) Cells were obtained from the ATCC Company (VACSERA), Cairo, Egypt. MTT assay were performed according to the literature method. More details are in the Supporting Information.
(§7) Recently, OSe compounds gained much attention as possible drug candidates due to their various pharmacological properties. […] Therefore, the anticancer attributes of the newly prepared OSe compounds were estimated using the MTT assay against MCF-7 and HepG2 and compared with their respective cytotoxicity in WI-38 primary cells. The anthracycline drug doxorubicin was used as the standard. […] Moreover, the therapeutic index (TI) was also calculated (according to Equation (1)), which is considered a measure of the selectivity and safety of the synthesized compounds. (1) TI=IC50 for the normal WI38 cells/IC50 for the cancer cells […]
(§8) 1.1. The biological assays
(§9) 1.1.1. The anticancer activity
(§10) The breast adenocarcinoma (MCF-7), Hepatocellular carcinoma (HEPG-2), and nor-mal fibroblast (WI-38) cells were obtained from ATCC via Holding company for biological products and vaccines (VACSERA), Cairo, Egypt.
(§11) DMSO, and fetal bovine serum was obtained from Sigma Aldrich. Dulbecco’s modified Eagle’s medium was used as the culture medium for the cells, and the cytotoxicity was evaluated using the reported MTT assay. Doxorubicin was used as the positive reference, and the IC50 values were obtained from the corresponding dose-response curve.
(§12) This colorimetric assay is based on converting the yellow tetrazolium bromide (MTT) to a purple formazan derivative by mitochondrial succinate dehydrogenase in viable cells. […]
(§13) added were 100 units/ml penicillin and 100µg/ml streptomycin at 37 C in a 5% Co2 incu-bator. The cell lines were seeded in a 96-well plate at a density of 1.0x10^4 cells/well. at 37 C for 48 h under 5% Co2. After incubation, the cells were treated with different concentra-tions of compounds and incubated for 24 h. After 24 h of drug treatment, 20 µl of MTT solution at 5mg/ml was added and incubated for 4 h. Finally, dimethyl sulfoxide (DMSO) in the volume of 100 µl is added to each well to dissolve the purple formazan formed. The colorimetric assay is measured and recorded at an absorbance of 570 nm using a plate […]
(§14) The percentage of the relative cell viability was calculated as (A570 of treated samples/A570 of the untreated sample) X 100. […]

WI-38 cells = test: cells; format: cell-based, human; conditions: Homo sapiens
Method: as §6, §7, §8, §9, §10, §11, §12, §13, §14

HepG2 cells = test: cells; format: cell-based, human; conditions: for IC50: Homo sapiens
Method: as §6
Recently, OSe compounds gained much attention as possible drug candidates due to their various pharmacological properties. Our group has reported several OSe candidates with potential anticancer, antimicrobial, and antioxidant activities. Therefore, the anticancer attributes of the newly prepared OSe compounds were estimated using the MTT assay against MCF-7 and HepG2 and compared with their respective cytotoxicity in WI-38 primary cells. The anthracycline drug doxorubicin was used as the standard. The minimal inhibition concentration required to kill 50% of the cells (IC50) was calculated from dose-response curves presented in Table 1. Moreover, the therapeutic index (TI) was also calculated (according to Equation (1)), which is considered a measure of the selectivity and safety of the synthesized compounds. (1) TI=IC50 for the normal WI38 cells/IC50 for the cancer cells […]
as §8, §9
The breast adenocarcinoma (MCF-7), Hepatocellular carcinoma (HEPG-2), and nor-mal fibroblast (WI-38) cells were obtained from ATCC via Holding company for biological products and vaccines (VACSERA), Cairo, Egypt. The reagents RPMI-1640 medium, MTT, DMSO, and fetal bovine serum was obtained from Sigma Aldrich. Dulbecco’s modified Eagle’s medium was used as the culture medium for the cells, and the cytotoxicity was evaluated using the reported MTT assay. Doxorubicin was used as the positive reference, and the IC50 values were obtained from the corresponding dose-response curve.
This colorimetric assay is based on converting the yellow tetrazolium bromide (MTT) to a purple formazan derivative by mitochondrial succinate dehydrogenase in viable cells.
Cell lines were cultured in RPMI-1640 medium with 10% fetal bovine serum. Antibiotics added were 100 units/ml penicillin and 100µg/ml streptomycin at 37 C in a 5% Co2 incu-bator. The cell lines were seeded in a 96-well plate at a density of 1.0x10^4 cells/well. at 37 C for 48 h under 5% Co2. After incubation, the cells were treated with different concentra-tions of compounds and incubated for 24 h. After 24 h of drug treatment, 20 µl of MTT solution at 5mg/ml was added and incubated for 4 h. Finally, dimethyl sulfoxide (DMSO) in the volume of 100 µl is added to each well to dissolve the purple formazan formed. The colorimetric assay is measured and recorded at an absorbance of 570 nm using a plate reader (EXL 800, USA). The percentage of the relative cell viability was calculated as (A570 of treated samples/A570 of the untreated sample) X 100. […]
as §5

Candida albicans = test: microbe, parasite or virus in culture; format: cell-based; conditions: for zone of inhibition at 20 µM: Candida albicans, inhibition zone diameter, six-mm disks soaked with 20 μM of compound, read-out: C. albicans IZD (mm); for C. albicans A% (activity index): zone of test compound / zone of standard (clotrimazole) x 100
Method: as §1, §2, §3
The antimicrobial activities of the OSe compounds were evaluated against C. albicans yeast as well as E. coli gram-negative and S. aureus gram-positive bacteria employing the agar well diffusion assay. […]
compound by dissolving in DMSO. […]
Petri dishes, which in turn contain a nutrient media (agar 20 g, peptone 5 g, and beef extract 3 g) seeded with the dedicated strain. Incubation lasted for 24 h at 36
as §4, §5

[1] = inhibition zone diameter, six-mm disks soaked with 20 μM of compound
[2] = MCF7, MTT, 24 h incubation, MCF-7 cells, read-out: MCF7 IC50
[3] = MTT, 24 h incubation, normal WI-38 cells, read-out: WI38 IC50
[4] = MTT, 24 h incubation, HepG2 cells, read-out: HepG2 IC50

| SMILES | melting point [°C] | zone of inhibition at 20 µM (Escherichia coli; [1]) [mm] | E. coli A% (activity index) (Escherichia coli) [%] | zone of inhibition at 20 µM (Staphylococcus aureus; [1]) [mm] | S. aureus A% (activity index) (Staphylococcus aureus) [%] | IC50 (MCF-7 cells; [2]) [µM] | IC50 (WI-38 cells; [3]) [µM] | IC50 (HepG2 cells; [4]) [µM] | further results |
| --- | --- | --- | --- | --- | --- | --- | --- | --- | --- |
| O=C(C[Se]c1ccc(N=Cc2ccccc2O)cc1)Nc1ccccc1 | 150.3 |  |  |  |  |  |  |  |  |
| CC1(C)S[C@@H]2[C@H](NC(=O)[C@H](N)c3ccccc3)C(=O)N2[C@H]1C(=O)O [Ampicillin, ampicillin, reference compound] |  | 23 | 100 | 21 | 100 |  |  |  |  |
| N#CC(C#N)=NNc1ccc([Se]CC(=O)Nc2ccccc2)cc1 [Compound 7] | 177 to 179 |  | 13 |  | 29 |  |  |  | IC50 (MCF-7 cells; MCF7, 24 h, read-out: MCF7 IC50 (µM)): > 100 µM; IC50 (WI-38 cells; WI-38, 24 h, read-out: WI38 IC50 (µM)): > 100 µM; IC50 (HepG2 cells; HepG2, 24 h, read-out: HepG2 IC50 (µM)): > 100 µM; zone of inhibition at 20 µM (Escherichia coli): 3 mm; zone of inhibition at 20 µM (Staphylococcus aureus): 6 mm |
| CC1=NN(c2ccccc2)C(=O)C1=NNc1ccc([Se]CC(=O)Nc2ccccc2)cc1 [Compound 8, 2-((4-(2-(3-methyl-5-oxo-1-phenyl-1H-pyrazol-4(5H)-ylidene)hydrazinyl)phenyl)selanyl)-N-phenylacetamide] | 197 to 199 |  |  | 4 | 19 | > 100 | > 100 | > 100 |  |
| O=C(O)C=CC(=O)Nc1ccc([Se]CC(=O)Nc2ccccc2)cc1 [Compound 10, 4-oxo-4-((4-((2-oxo-2-(phenylamino)ethyl)selanyl)phenyl)amino)but-2-enoic acid] |  | 9 | 39 | 11 | 52 | 34.8 ± 2.5 | 46 ± 2.9 | > 100 | MCF7 TI (IC50 WI-38 / IC50 MCF-7) (MCF-7 cells): 1.3; zone of inhibition at 20 µM (Candida albicans): 8 mm; C. albicans A% (activity index) (Candida albicans): 33% |
| O=C(C[Se]c1ccc(N2C(=O)c3ccccc3C2=O)cc1)Nc1ccccc1 [Compound 12, 2-((4-(1,3-dioxoisoindolin-2-yl)phenyl)selanyl)-N-phenylacetamide] | 261 to 262 | 6 | 26 | 8 | 38 | > 100 | > 100 | > 100 | zone of inhibition at 20 µM (Candida albicans): 7 mm; C. albicans A% (activity index) (Candida albicans): 29% |
| O=C(C[Se]c1ccc(N2C(=O)C=CC2=O)cc1)Nc1ccccc1 [Compound 13, 2-((4-(2,5-dioxo-2,5-dihydro-1H-pyrrol-1-yl)phenyl)selanyl)-N-phenylacetamide] | 169 to 170 | 5 | 22 | 6 | 29 | > 100 | > 100 | > 100 |  |
| O=CNc1ccc([Se]CC(=O)Nc2ccccc2)cc1 [Compound 17, 2-((4-formamidophenyl)selanyl)-N-phenylacetamide] | 143 to 144 |  |  |  |  | > 100 | > 100 | > 100 |  |
| O=C(CCl)Nc1ccc([Se]CC(=O)Nc2ccccc2)cc1 [Compound 19] | 184.8 |  |  |  |  | > 100 | > 100 | > 100 |  |
| COc1cccc2c1C(=O)c1c(O)c3c(c(O)c1C2=O)C[C@@](O)(C(=O)CO)C[C@@H]3O[C@H]1C[C@H](N)[C@H](O)[C@H](C)O1 [Doxorubicin, doxorubicin, reference compound] |  |  |  |  |  |  |  | 4.5 ± 0.2 | MCF7 TI (IC50 WI-38 / IC50 MCF-7) (MCF-7 cells): 1.6; HepG2 TI (IC50 WI-38 / IC50 HepG2) (HepG2 cells; therapeutic index, ratio of WI-38 IC50 to HepG2 IC50): 1.5 |
